From ChEMBL document CHEMBL3885881, “DrugMatrix”

Organism: Rattus norvegicus
Assay: DrugMatrix - Regimen: Daily Repeat
Assay type: toxicity, organism-based, Sprague-Dawley
Parameters: regimen Daily Repeat, gender Male, age 6-8 weeks
Conditions: in vivo, po, route oral GAVAGE, vehicle 100 % WATER; for ABSOLUTE BASOPHIL / ABSOLUTE EOSINOPHIL / ABSOLUTE LYMPHOCYTE / ABSOLUTE MONOCYTE / ABSOLUTE SEGMENTED NEUTROPHIL / BASOPHIL / EOSINOPHIL / ERYTHROCYTE COUNT / HEMATOCRIT / HEMOGLOBIN / LEUKOCYTE COUNT / LYMPHOCYTE / MEAN CORPUSCULAR HEMOGLOBIN / MEAN CORPUSCULAR HEMOGLOBIN CONCENTRATION / MEAN CORPUSCULAR VOLUME / MONOCYTE / NEUTROPHIL / NUCLEATED RED BLOOD CELLS / PLATELET COUNT: tissue Blood; for ALANINE AMINOTRANSFERASE / ALBUMIN / ALKALINE PHOSPHATASE / ASPARTATE AMINOTRANSFERASE / BLOOD UREA NITROGEN / CARBON DIOXIDE / CHLORIDE / CHOLESTEROL / CREATINE PHOSPHOKINASE / CREATININE / GLUCOSE / LACTATE DEHYDROGENASE / LIPASE / PHOSPHORUS / POTASSIUM / SODIUM / TOTAL BILIRUBIN / TOTAL PROTEIN / URIC ACID: tissue Plasma
[1] = 0 mg/kg, 72 h, dose level Control, time 3 day
[2] = 0 mg/kg, 120 h, dose level Control, time 5 day
[3] = 14 mg/kg, 72 h, dose level Low, time 3 day

Compound: C[C@H]1c2cccc(O)c2C(=O)C2=C(O)[C@]3(O)C(=O)C(C(N)=O)=C(O)[C@@H](N(C)C)[C@@H]3[C@@H](O)[C@@H]21.O [DOXYCYCLINE]
- ABSOLUTE BASOPHIL [1]: 0 CELLS/uL
- ABSOLUTE EOSINOPHIL [1]: 86.33 CELLS/uL
- ABSOLUTE LYMPHOCYTE [1]: 12090.17 CELLS/uL
- ABSOLUTE MONOCYTE [1]: 166.67 CELLS/uL
- ABSOLUTE SEGMENTED NEUTROPHIL [1]: 1090.17 CELLS/uL
- BASOPHIL [1]: 0%
- EOSINOPHIL [1]: 0.67%
- ERYTHROCYTE COUNT [1]: 5.57 x10E6/uL
- HEMATOCRIT [1]: 35.33%
- HEMOGLOBIN [1]: 13.83 G/DL
- LEUKOCYTE COUNT [1]: 13.43 x10E3/uL
- LYMPHOCYTE [1]: 89.83%
- MEAN CORPUSCULAR HEMOGLOBIN [1]: 24.88 pg
- MEAN CORPUSCULAR HEMOGLOBIN CONCENTRATION [1]: 39.15 G/DL
- MEAN CORPUSCULAR VOLUME [1]: 63.52 fL
- MONOCYTE [1]: 1.17%
- NEUTROPHIL [1]: 8.33%
- NUCLEATED RED BLOOD CELLS [1]: 0 /100WBC
- PLATELET COUNT [1]: 1181.33 x10E3/uL
- ALANINE AMINOTRANSFERASE [1]: 48.33 u/L
- ALBUMIN [1]: 4.1 G/DL
- ALKALINE PHOSPHATASE [1]: 395 u/L
- ASPARTATE AMINOTRANSFERASE [1]: 81.83 u/L
- BLOOD UREA NITROGEN [1]: 15.83 mg/dL
- CARBON DIOXIDE [1]: 24.17 mmol/L
- CHLORIDE [1]: 103.83 MEQ/L
- CHOLESTEROL [1]: 63.67 mg/dL
- CREATINE PHOSPHOKINASE [1]: 372.83 u/L
- CREATININE [1]: 0.18 mg/dL
- GLUCOSE [1]: 173.83 mg/dL
- LACTATE DEHYDROGENASE [1]: 188.33 u/L
- LIPASE [1]: 9.5 u/L
- PHOSPHORUS [1]: 11.95 mg/dL
- POTASSIUM [1]: 5.99 MEQ/L
- SODIUM [1]: 144.43 MEQ/L
- TOTAL BILIRUBIN [1]: 0.15 mg/dL
- TOTAL PROTEIN [1]: 5.95 G/DL
- URIC ACID [1]: 1.82 mg/dL
- ABSOLUTE BASOPHIL [2]: 0 CELLS/uL
- ABSOLUTE EOSINOPHIL [2]: 26.67 CELLS/uL
- ABSOLUTE LYMPHOCYTE [2]: 7583.83 CELLS/uL
- ABSOLUTE MONOCYTE [2]: 131.33 CELLS/uL
- ABSOLUTE SEGMENTED NEUTROPHIL [2]: 674.83 CELLS/uL
- BASOPHIL [2]: 0%
- EOSINOPHIL [2]: 0.33%
- ERYTHROCYTE COUNT [2]: 5.78 x10E6/uL
- HEMATOCRIT [2]: 36.48%
- HEMOGLOBIN [2]: 14.03 G/DL
- LEUKOCYTE COUNT [2]: 8.42 x10E3/uL
- LYMPHOCYTE [2]: 89.83%
- MEAN CORPUSCULAR HEMOGLOBIN [2]: 24.3 pg
- MEAN CORPUSCULAR HEMOGLOBIN CONCENTRATION [2]: 38.52 G/DL
- MEAN CORPUSCULAR VOLUME [2]: 63.15 fL
- MONOCYTE [2]: 1.67%
- NEUTROPHIL [2]: 8.17%
- NUCLEATED RED BLOOD CELLS [2]: 0 /100WBC
- PLATELET COUNT [2]: 1186.67 x10E3/uL
- ALANINE AMINOTRANSFERASE [2]: 50.17 u/L
- ALBUMIN [2]: 4.07 G/DL
- ALKALINE PHOSPHATASE [2]: 367.5 u/L
- ASPARTATE AMINOTRANSFERASE [2]: 81.67 u/L
- BLOOD UREA NITROGEN [2]: 16.17 mg/dL
- CARBON DIOXIDE [2]: 32.33 mmol/L
- CHLORIDE [2]: 101.5 MEQ/L
- CHOLESTEROL [2]: 65.33 mg/dL
- CREATINE PHOSPHOKINASE [2]: 255.33 u/L
- CREATININE [2]: 0.17 mg/dL
- GLUCOSE [2]: 139.33 mg/dL
- LACTATE DEHYDROGENASE [2]: 95 u/L
- LIPASE [2]: 10.5 u/L
- PHOSPHORUS [2]: 10.38 mg/dL
- POTASSIUM [2]: 6.11 MEQ/L
- SODIUM [2]: 145.55 MEQ/L
- TOTAL BILIRUBIN [2]: 0.17 mg/dL
- TOTAL PROTEIN [2]: 5.98 G/DL
- URIC ACID [2]: 0.93 mg/dL
- ABSOLUTE BASOPHIL [3]: 0 CELLS/uL
- ABSOLUTE EOSINOPHIL [3]: 116.33 CELLS/uL
- ABSOLUTE LYMPHOCYTE [3]: 13980 CELLS/uL
- ABSOLUTE MONOCYTE [3]: 147.67 CELLS/uL
- ABSOLUTE SEGMENTED NEUTROPHIL [3]: 1122.67 CELLS/uL
- BASOPHIL [3]: 0%
- EOSINOPHIL [3]: 0.67%
- ERYTHROCYTE COUNT [3]: 5.35 x10E6/uL
- HEMATOCRIT [3]: 33.67%
- HEMOGLOBIN [3]: 13.37 G/DL
- LEUKOCYTE COUNT [3]: 15.37 x10E3/uL
- LYMPHOCYTE [3]: 90.33%
- MEAN CORPUSCULAR HEMOGLOBIN [3]: 25 pg
- MEAN CORPUSCULAR HEMOGLOBIN CONCENTRATION [3]: 39.73 G/DL
- MEAN CORPUSCULAR VOLUME [3]: 62.97 fL
- MONOCYTE [3]: 1%
- NEUTROPHIL [3]: 8%
- NUCLEATED RED BLOOD CELLS [3]: 0 /100WBC
- PLATELET COUNT [3]: 1183 x10E3/uL
- ALANINE AMINOTRANSFERASE [3]: 54 u/L
- ALBUMIN [3]: 3.97 G/DL
- ALKALINE PHOSPHATASE [3]: 325.67 u/L
- ASPARTATE AMINOTRANSFERASE [3]: 90 u/L
- BLOOD UREA NITROGEN [3]: 18 mg/dL
- CARBON DIOXIDE [3]: 24.33 mmol/L
- CHLORIDE [3]: 103.67 MEQ/L
- CHOLESTEROL [3]: 61.33 mg/dL
- CREATINE PHOSPHOKINASE [3]: 372 u/L
- CREATININE [3]: 0.12 mg/dL
- GLUCOSE [3]: 163.33 mg/dL
- LACTATE DEHYDROGENASE [3]: 339 u/L
- LIPASE [3]: 8.67 u/L
- PHOSPHORUS [3]: 11.87 mg/dL
- POTASSIUM [3]: 5.76 MEQ/L
- SODIUM [3]: 143.73 MEQ/L
- TOTAL BILIRUBIN [3]: 0.2 mg/dL
- TOTAL PROTEIN [3]: 5.77 G/DL
- URIC ACID [3]: 1.13 mg/dL
